The source of these data is US10448639B2, “Fungicidal pyrazoles” (FMC CORPORATION, priority 2009, dated 2019).

SMILES strings stand for the structures. Marks after values point to notes of the source that are not given here.

The test system of one assay is Alternaria solani. As to the kind of experiment: Test C: tomato early blight, preventive spray on tomato seedlings, visual disease rating. As to conditions: Alternaria solani, in Solanum lycopersicum, 168 h, read-out: Test C rating (% disease control).
As to `Cc1nn(C)c(Nc2ccc(F)cc2Cl)c1-c1ccc(F)cc1Cl` [Compound 175, N,4-bis(2-chloro-4-fluorophenyl)-1,3-dimethyl-1H-pyrazol-5-amine], the pest or weed control at 200 µg/mL came out at 99%.

Staying with this assay, now noted: tomato early blight, preventive spray; 100 = 100% disease control, 0 = no control.
Turning to `COc1cc(F)c(-c2c(C)nn(C)c2Nc2c(Cl)cc(OC)cc2OC)c(F)c1` [compound 59], the “Test C rating (% disease control)” value amounted to 0%.
As for `Cc1nn(C)c(Nc2ccc(F)cc2F)c1-c1c(F)cc(C#N)cc1F` [compound 106], the “Test C rating (% disease control)” value turned out to be 99%.
On to `COc1ccc(Nc2c(-c3c(F)cc(C#N)cc3F)c(C)nn2C)cc1` [compound 126], for which the “Test C rating (% disease control)” value came to 96%.
Same read-out and setting: then `COc1ccc(Nc2c(-c3ccc(Cl)cc3Cl)c(C)nn2C)c(OC)c1` [compound 57], with 0%; and `Cc1nn(C)c(Nc2cccc(Cl)c2)c1-c1c(F)cc(C#N)cc1F` [compound 115], with 0%.
For the compound `Cc1nn(C)c(Oc2ccc([N+](=O)[O-])cc2Cl)c1-c1c(F)cc(F)cc1F` [compound 32], the “Test C rating (% disease control)” value was found to be 0%.

Still in this assay, the particulars now being: tomato early blight, preventive spray; rating marked with asterisk (different test condition, key not given).
On to `Cc1nn(C)c(Oc2c(F)cc(C#N)cc2F)c1-c1c(F)cc(F)cc1F` [compound 31], for which the “Test C rating (% disease control), value marked *” value was 98* %.

The test system of the next assay is Erysiphe graminis f sp. tritici. The experiment in a line: Test J: wheat powdery mildew, preventive spray on wheat seedlings, visual disease rating. As to conditions: Blumeria graminis, in Triticum aestivum, 192 h, read-out: Test J rating (% disease control).
Regarding `Cc1nn(C)c(Nc2ccc(F)cc2Cl)c1-c1ccc(F)cc1Cl` [Compound 175, N,4-bis(2-chloro-4-fluorophenyl)-1,3-dimethyl-1H-pyrazol-5-amine], the pest or weed control at 200 µg/mL amounted to 100%.

Staying with this assay, now noted: wheat powdery mildew, preventive spray; 100 = 100% disease control, 0 = no control.
As to `COc1cc(F)c(-c2c(C)nn(C)c2Nc2c(Cl)cc(OC)cc2OC)c(F)c1` [compound 59], the “Test J rating (% disease control)” value is 0%.
On the same count and under the same terms, the value for `Cc1nn(C)c(Nc2ccc(F)cc2F)c1-c1c(F)cc(C#N)cc1F` [compound 106] was 100%; that for `COc1ccc(Nc2c(-c3c(F)cc(C#N)cc3F)c(C)nn2C)cc1` [compound 126] was 0%; that for `COc1ccc(Nc2c(-c3ccc(Cl)cc3Cl)c(C)nn2C)c(OC)c1` [compound 57] was 0%.
On the same count and under the same terms, the value for `Cc1nn(C)c(Nc2cccc(Cl)c2)c1-c1c(F)cc(C#N)cc1F` [compound 115] was 0%; that for `Cc1nn(C)c(Oc2ccc([N+](=O)[O-])cc2Cl)c1-c1c(F)cc(F)cc1F` [compound 32] was 97%.

Still in this assay, the particulars now being: wheat powdery mildew, preventive spray; rating marked with asterisk (different test condition, key not given).
For the compound `Cc1nn(C)c(Oc2c(F)cc(C#N)cc2F)c1-c1c(F)cc(F)cc1F` [compound 31], the “Test J rating (% disease control), value marked *” value is reported as 60* %.

The subject of the next assay is Botrytis cinerea. The experiment in a line: Test B: tomato Botrytis, preventive spray on tomato seedlings, visual disease rating. As to conditions: Botrytis cinerea, in Solanum lycopersicum, 120 h, read-out: Test B rating (% disease control).
As to `Cc1nn(C)c(Nc2ccc(F)cc2Cl)c1-c1ccc(F)cc1Cl` [Compound 175, N,4-bis(2-chloro-4-fluorophenyl)-1,3-dimethyl-1H-pyrazol-5-amine], the pest or weed control at 200 µg/mL came to 100%.

Staying with this assay, now noted: tomato Botrytis, preventive spray; 100 = 100% disease control, 0 = no control.
Take `COc1cc(F)c(-c2c(C)nn(C)c2Nc2c(Cl)cc(OC)cc2OC)c(F)c1` [compound 59]: the “Test B rating (% disease control)” value was 94%.
In the case of `Cc1nn(C)c(Nc2ccc(F)cc2F)c1-c1c(F)cc(C#N)cc1F` [compound 106], the “Test B rating (% disease control)” value is reported as 100%.
`COc1ccc(Nc2c(-c3c(F)cc(C#N)cc3F)c(C)nn2C)cc1` [compound 126]: the “Test B rating (% disease control)” value is recorded as 99%.
In the case of `COc1ccc(Nc2c(-c3ccc(Cl)cc3Cl)c(C)nn2C)c(OC)c1` [compound 57], the “Test B rating (% disease control)” value is recorded as 98%.
On the same count and under the same terms, then `Cc1nn(C)c(Nc2cccc(Cl)c2)c1-c1c(F)cc(C#N)cc1F` [compound 115], with 99%; and `Cc1nn(C)c(Oc2ccc([N+](=O)[O-])cc2Cl)c1-c1c(F)cc(F)cc1F` [compound 32], with 99%.

Staying with this assay, now noted: tomato Botrytis, preventive spray; rating marked with asterisk (different test condition, key not given).
With `Cc1nn(C)c(Oc2c(F)cc(C#N)cc2F)c1-c1c(F)cc(F)cc1F` [compound 31], the “Test B rating (% disease control), value marked *” value is 99* %.

In a further assay the test system is Septoria tritici. As to the kind of experiment: Test G: wheat leaf blotch, preventive spray on wheat seedlings, visual disease rating. As to conditions: Zymoseptoria tritici, in Triticum aestivum, 504 h, read-out: Test G rating (% disease control).
Take `Cc1nn(C)c(Nc2ccc(F)cc2Cl)c1-c1ccc(F)cc1Cl` [Compound 175, N,4-bis(2-chloro-4-fluorophenyl)-1,3-dimethyl-1H-pyrazol-5-amine]: the pest or weed control at 200 µg/mL was found to be 96%.

The assay is the same for the next values; noted with them: wheat leaf blotch, preventive spray; 100 = 100% disease control, 0 = no control.
With `COc1cc(F)c(-c2c(C)nn(C)c2Nc2c(Cl)cc(OC)cc2OC)c(F)c1` [compound 59], the “Test G rating (% disease control)” value is on record as 88%.
Same read-out and setting: then `Cc1nn(C)c(Nc2ccc(F)cc2F)c1-c1c(F)cc(C#N)cc1F` [compound 106], with 100%; and `COc1ccc(Nc2c(-c3c(F)cc(C#N)cc3F)c(C)nn2C)cc1` [compound 126], with 100%.
As for `COc1ccc(Nc2c(-c3ccc(Cl)cc3Cl)c(C)nn2C)c(OC)c1` [compound 57], the “Test G rating (% disease control)” value came to 94%.
Take `Cc1nn(C)c(Nc2cccc(Cl)c2)c1-c1c(F)cc(C#N)cc1F` [compound 115]: the “Test G rating (% disease control)” value is on record as 100%.
On to `Cc1nn(C)c(Oc2ccc([N+](=O)[O-])cc2Cl)c1-c1c(F)cc(F)cc1F` [compound 32], for which the “Test G rating (% disease control)” value turned out to be 96%.

The assay is the same for the next values; noted with them: wheat leaf blotch, preventive spray; rating marked with asterisk (different test condition, key not given).
On to `Cc1nn(C)c(Oc2c(F)cc(C#N)cc2F)c1-c1c(F)cc(F)cc1F` [compound 31], for which the “Test G rating (% disease control), value marked *” value was 47* %.

The subject of another assay is Puccinia recondita f. sp. tritici. As to the kind of experiment: Test I: wheat leaf rust, preventive spray on wheat seedlings, visual disease rating. As to conditions: 192 h, read-out: Test I rating (% disease control).
`Cc1nn(C)c(Nc2ccc(F)cc2Cl)c1-c1ccc(F)cc1Cl` [Compound 175, N,4-bis(2-chloro-4-fluorophenyl)-1,3-dimethyl-1H-pyrazol-5-amine]: the pest or weed control at 200 µg/mL was determined as 99%.

The same assay, now with this note: wheat leaf rust, preventive spray; 100 = 100% disease control, 0 = no control.
Turning to `COc1cc(F)c(-c2c(C)nn(C)c2Nc2c(Cl)cc(OC)cc2OC)c(F)c1` [compound 59], the “Test I rating (% disease control)” value came to 68%.
Still for that read-out and setting: the value for `Cc1nn(C)c(Nc2ccc(F)cc2F)c1-c1c(F)cc(C#N)cc1F` [compound 106] was 99%; that for `COc1ccc(Nc2c(-c3c(F)cc(C#N)cc3F)c(C)nn2C)cc1` [compound 126] was 94%; that for `COc1ccc(Nc2c(-c3ccc(Cl)cc3Cl)c(C)nn2C)c(OC)c1` [compound 57] was 85%.
Consider `Cc1nn(C)c(Nc2cccc(Cl)c2)c1-c1c(F)cc(C#N)cc1F` [compound 115], for which the “Test I rating (% disease control)” value was determined as 91%.
`Cc1nn(C)c(Oc2ccc([N+](=O)[O-])cc2Cl)c1-c1c(F)cc(F)cc1F` [compound 32]: the “Test I rating (% disease control)” value was 99%.

Staying with this assay, now noted: wheat leaf rust, preventive spray; rating marked with asterisk (different test condition, key not given).
For `Cc1nn(C)c(Oc2c(F)cc(C#N)cc2F)c1-c1c(F)cc(F)cc1F` [compound 31], the “Test I rating (% disease control), value marked *” value is 79* %.

The test system is the same in a further assay. As to the kind of experiment: Test H: wheat leaf rust, curative spray on inoculated wheat seedlings, visual disease rating. The settings on record: 144 h, read-out: Test H rating (% disease control).
For `Cc1nn(C)c(Nc2ccc(F)cc2Cl)c1-c1ccc(F)cc1Cl` [Compound 175, N,4-bis(2-chloro-4-fluorophenyl)-1,3-dimethyl-1H-pyrazol-5-amine], the pest or weed control at 200 µg/mL was found to be 93%.

The same assay, now with this note: wheat leaf rust, curative spray; 100 = 100% disease control, 0 = no control.
On to `COc1cc(F)c(-c2c(C)nn(C)c2Nc2c(Cl)cc(OC)cc2OC)c(F)c1` [compound 59], for which the “Test H rating (% disease control)” value came to 0%.
For `Cc1nn(C)c(Nc2ccc(F)cc2F)c1-c1c(F)cc(C#N)cc1F` [compound 106], the “Test H rating (% disease control)” value stood at 82%.
As for `COc1ccc(Nc2c(-c3c(F)cc(C#N)cc3F)c(C)nn2C)cc1` [compound 126], the “Test H rating (% disease control)” value is on record as 0%.
The same measure, in the same setting: the value for `COc1ccc(Nc2c(-c3ccc(Cl)cc3Cl)c(C)nn2C)c(OC)c1` [compound 57] was 85%; that for `Cc1nn(C)c(Nc2cccc(Cl)c2)c1-c1c(F)cc(C#N)cc1F` [compound 115] was 0%.
On to `Cc1nn(C)c(Oc2ccc([N+](=O)[O-])cc2Cl)c1-c1c(F)cc(F)cc1F` [compound 32], for which the “Test H rating (% disease control)” value amounted to 0%.

Staying with this assay, now noted: wheat leaf rust, curative spray; rating marked with asterisk (different test condition, key not given).
Consider `Cc1nn(C)c(Oc2c(F)cc(C#N)cc2F)c1-c1c(F)cc(F)cc1F` [compound 31], for which the “Test H rating (% disease control), value marked *” value was 15* %.

A further assay concerns Septoria nodorum. The experiment in a line: Test F: Septoria glume blotch, preventive spray on wheat seedlings, visual disease rating. As to conditions: Parastagonospora nodorum, in Triticum aestivum, 192 h, read-out: Test F rating (% disease control).
As for `Cc1nn(C)c(Nc2ccc(F)cc2Cl)c1-c1ccc(F)cc1Cl` [Compound 175, N,4-bis(2-chloro-4-fluorophenyl)-1,3-dimethyl-1H-pyrazol-5-amine], the pest or weed control at 200 µg/mL stood at 82%.

Still in this assay, the particulars now being: Septoria glume blotch on wheat, preventive spray; 100 = 100% disease control, 0 = no control.
For the compound `COc1cc(F)c(-c2c(C)nn(C)c2Nc2c(Cl)cc(OC)cc2OC)c(F)c1` [compound 59], the “Test F rating (% disease control)” value worked out at 0%.
As for `Cc1nn(C)c(Nc2ccc(F)cc2F)c1-c1c(F)cc(C#N)cc1F` [compound 106], the “Test F rating (% disease control)” value is 90%.
Turning to `COc1ccc(Nc2c(-c3c(F)cc(C#N)cc3F)c(C)nn2C)cc1` [compound 126], the “Test F rating (% disease control)” value is 60%.
Same read-out and setting: the value for `COc1ccc(Nc2c(-c3ccc(Cl)cc3Cl)c(C)nn2C)c(OC)c1` [compound 57] was 0%.
With `Cc1nn(C)c(Nc2cccc(Cl)c2)c1-c1c(F)cc(C#N)cc1F` [compound 115], the “Test F rating (% disease control)” value turned out to be 0%.
For `Cc1nn(C)c(Oc2ccc([N+](=O)[O-])cc2Cl)c1-c1c(F)cc(F)cc1F` [compound 32], the “Test F rating (% disease control)” value came out at 0%.

The same assay, now with this note: Septoria glume blotch, preventive spray; rating marked with asterisk (different test condition, key not given).
For the compound `Cc1nn(C)c(Oc2c(F)cc(C#N)cc2F)c1-c1c(F)cc(F)cc1F` [compound 31], the “Test F rating (% disease control), value marked *” value was 0* %.
